{"source": "patent EP2729445B1", "about": "“CYCLIC AMINE DERIVATIVES AS EP4 RECEPTOR ANTAGONISTS” (Rottapharm Biotech S.r.l., priority 2011, dated 2013)", "key": {"hEP4 receptors [1]": {"biological_target": "T1, hEP4 receptors (Homo sapiens, UniProt P35408)", "T1 construct": "membrane fraction used", "T1 sequence (P35408 whole entry)": "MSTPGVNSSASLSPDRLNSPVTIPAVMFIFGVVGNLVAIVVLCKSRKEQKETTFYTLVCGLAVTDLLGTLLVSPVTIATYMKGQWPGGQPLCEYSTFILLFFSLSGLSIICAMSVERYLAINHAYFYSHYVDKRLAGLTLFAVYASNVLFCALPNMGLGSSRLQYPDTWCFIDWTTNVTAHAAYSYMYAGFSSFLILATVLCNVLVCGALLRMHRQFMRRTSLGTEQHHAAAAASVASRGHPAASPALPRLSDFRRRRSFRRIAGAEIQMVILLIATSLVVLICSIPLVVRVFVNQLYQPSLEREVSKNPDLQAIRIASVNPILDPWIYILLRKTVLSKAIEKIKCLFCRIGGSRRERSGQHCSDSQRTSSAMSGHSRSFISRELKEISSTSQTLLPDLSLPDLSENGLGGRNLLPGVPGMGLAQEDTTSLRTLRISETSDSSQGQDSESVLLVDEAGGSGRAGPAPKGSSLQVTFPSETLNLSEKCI", "assay": "cAMP assay (AlphaScreen) on human EP4 membrane of transfected cells, antagonism of PGE2", "assay_type": "biochemical", "details": "HEK293 cell membrane stimulated with PGE2 3nM; read-out: functional IC50", "experimental": "(§1) The cDNA clone of human EP4 receptor (NM_000958.2) was obtained from InvitrogenTM: Ultimate™ ORF Clone Collection - Clone ID IOH46525. The coding sequence was subcloned in expression vector pcDNATM6.2/V5-DEST by Gateway technology (InvitrogenTM). Human embryonic kidney cells (HEK-293) were stably transfected with expression vector for human EP4 receptor in according to the method described in FuGENE®6 Transfection Reagent's manual (Roche Applied Science®).\n(§2) The EP4 transfected cells were grown in Dulbecco's modified Eagle's medium containing 10% fetal bovine serum and 10 µg/ml Blasticidin S HCl (selection medium) at 37°C in a humidified atmosphere of 5% CO2 in air. For the membrane preparation, cells in flask were harvested by hypotonical/mechanical lysis with chilled (4°C) TE buffer (5mM TRIS, 5mM ethylenediamine tetra-acetic acid (EDTA), pH 7.4). Cells were detached and lysed with 10ml of hypotonic lysis buffer and by scraping. The cell lysate was vortexed for 30 sec and centrifuged at 40000x g at 4°C for 22min.\nThe assay is based on the competition between endogenous cAMP and exogenously added biotinylated cAMP. The capture of cAMP is achieved by using a specific antibody conjugated to Donor beads. Cell membranes prepared as described above, were resuspended in 1 ml stimulation buffer (HBSS 1X + BSA 0.1% + IBMX 0.5mM + HEPES 5mM + MgCl2 10mM + GTP 1 nM + GDP 10µM + ATP 100µM - pH 7.4). Cell membranes were dispensed into white 384-well microplates at final concentration of 1µg/well and used for the determination of cAMP with the alphascreen cAMP functional assay (EnVision - PerkinElmer). Cell membrane/anti-cAMP Acceptor beads mix (5 µl) and a mixture of analysed compounds (dissolved in 100% DMSO to a final maximal concentration of 0.01% DMSO)/PGE2 (5 µl) were incubated at room temperature (22-23°C) for 30 min in the dark. The Biotinylated-cAMP and donor beads (15 µl) were dispensed into each well to start the competition reaction. After 1 h incubation RT (22-23°C) in the dark the plate was read using EnVision platform to determine the cAMP level (excitation: 680nm; emission:520,620nm). In each experiment:\ncAMP standard curve (concentration range from 1x10-6 to 1x10-11 M in log intervals) with a negative control (no cAMP)\na positive control: forskolin 10µM\nAntagonism studies were performed stimulating HEK293 cell membrane with PGE2 3nM. The AlphaScreen signal is plotted as a function of log concentration of cAMP and functional IC50 is determined. IC50 value is calculated by linear regression."}, "hEP4 receptors [2]": {"biological_target": "T1, hEP4 receptors", "assay": "[3H]-Prostaglandin E2 membrane binding assay", "details": "read-out: Binding pKi (converted)", "experimental": "as §1, §2\nThe membrane pellet was resuspended in the same buffer (5mM TRIS, 5mM ethylenediamine tetra-acetic acid (EDTA), pH 7.4), and protein concentration was determined by Bradford method (Bio-Bad® assay). This membrane preparation was stored at -80°C freezer until use for binding assay. ([^3H]-PGE2) membranes binding assays toward hEP4 receptors (human EP4/HEK293 transfectant, see above) and hEP2 receptors (human EP2/HEK293 transfectant, purchased from PerkinElmer Inc) were performed in 10 mM MES-KOH buffer pH6, containing 10 mM MgCl2 and 1 mM CaCl2 for EP4 binding assay or 50 mM Tris-Cl, BSA 0.5% for EP2 binding assay (according to supplier indication) . Ten microgram of protein from membrane fractions were incubated in a total volume of 0.1ml (EP4) or 0.2ml (EP2) with 1nM (EP4) or 3nM (EP2) [^3H]-PGE2 (PerkinElmer Inc, 171Ci/mmol). In both assays to determine the total binding or non specific binding, 1% DMSO or 1µM prostaglandin E2 (EP4) or 100 µM (EP2) were added to reaction mixtures, respectively. Incubation was conducted in a polypropylene 96 multiwell for 90 min (EP4) or 60 min (EP2) at room temperature prior to separation of the bound and free radioligand by vacuum manifold rapid filtration on glass fiber filters (Unifilter GFB96, PerkinElmer Inc) pre-soaked in 0.3% polyethyleneimine. Filters were washed with ice cold buffer pH 7.4 (50mM HEPES, NaCl 500mM, BSA 0.1% for EP4 binding assay or 50mM Tris-Cl for EP2 binding assays) and the residual [^3H]-PGE2 binding determined by solid scintillation counter (TopCount , PerkinElmer Inc).\nThe affinity (Ki) of each compound was calculated according to the Cheng-Prousoff equation: Ki = IC50/(1+([C]/Kd)). Results were expressed as pKi (- log10 Ki (M)"}, "[3]": {"assay": "Pharmacokinetics after intravenous and oral treatment, plasma LC-MS/MS", "assay_type": "in vivo, male Han Wistar rats", "details": "rat, 1 mg/kg; for AUC(0-inf): extrapolated to infinity", "experimental": "The pharmacokinetics of compounds E7, E17 and E18, were studied in male Han Wistar rats. The rats were treated intravenously and orally (n=3 for each dose route) with compounds formulated as solutions. The rats were fitted with a jugular cannula for serial sampling. A full profile was acquired from each rat. Plasma extracts were quantitatively analyzed using a specific and sensitive LC-MS/MS bioanalytical method. Inter-individual variations between the three rats in each group were limited (CV for pharmacokinetic parameters was below 50%). […] A range of clearance values were obtained for the different structure, ranging from low to moderate values (from 43 to 250 ml/h). After oral administration, absorption was quite fast with a clear maximum concentration reached by the first sampling time-point of 15 minutes for all compounds."}}, "data": [{"compound": "O=C(O)c1ccc(C2(NC(=O)[C@H]3CC(F)(F)CCN3Cc3ccc(C(F)(F)F)cc3)CC2)cc1", "note": "[Example E17, (R)-4-(1-(4,4-difluoro-1-(4-(trifluoromethyl)benzyl)piperidine-2-carboxamido)cyclopropyl)benzoic acid]", "values": [{"measurement": "IC50", "setting": "hEP4 receptors [1]", "value": 28, "unit": "nM"}, {"measurement": "Ki", "setting": "hEP4 receptors [2]", "value": 12.6, "unit": "nM"}, {"measurement": "AUC(0-t)", "setting": "[3]; male, Han Wistar, plasma, iv", "value": 966, "unit": "ng·h/mL"}, {"measurement": "AUC(0-inf)", "setting": "[3]; male, Han Wistar, plasma, iv", "value": 1040, "unit": "ng·h/mL"}, {"measurement": "half-life", "setting": "[3]; male, Han Wistar, plasma, iv, extrapolated, indicative only", "value": 7.3, "unit": "h"}, {"measurement": "clearance", "setting": "[3]; male, Han Wistar, plasma, iv, extrapolated, indicative only, read-out: CLp* (converted)", "value": 4.22, "unit": "mL/min"}, {"measurement": "Vd", "setting": "[3]; male, Han Wistar, plasma, iv, extrapolated, indicative only, read-out: Vss*", "value": 1.79, "unit": "L"}, {"measurement": "AUC(0-t)", "setting": "[3]; male, Han Wistar, plasma, po", "value": 823, "unit": "ng·h/mL"}, {"measurement": "Cmax", "setting": "[3]; male, Han Wistar, plasma, po", "value": 318, "unit": "ng/mL"}, {"measurement": "Tmax", "setting": "[3]; male, Han Wistar, plasma, po", "value": 0.5, "unit": "h"}, {"measurement": "AUC(0-inf)", "setting": "[3]; male, Han Wistar, plasma, po", "value": 1080, "unit": "ng·h/mL"}, {"measurement": "half-life", "setting": "[3]; male, Han Wistar, plasma, po, extrapolated, indicative only", "value": 14.1, "unit": "h"}, {"measurement": "bioavailability", "setting": "[3]; male, Han Wistar, plasma, po", "value": 85, "unit": "%"}, {"measurement": "Tlast", "setting": "[3]; po", "value": 24, "unit": "h"}]}]}
